“Also recorded” adds a separate entry of the source.
Key:
squirrel monkeys = experiment: Monkey self-administration model of addictive potential
[1] = Pharmacokinetics following intravenous (IV) dosing; format: in vivo, Sprague-Dawley rats; details: male, Sprague-Dawley, rat, plasma, hydroxycodone series, 1 mg/kg IV, Mean ± SD
Source text: (§1) There were 3 rats/group. All animals were food fasted overnight. […] The predose sample was collected from the JVC.
(§2) Following the last collection point, the animals were euthanized.

[2] = Pharmacokinetics following oral (PO) dosing; format: in vivo, Sprague-Dawley rats; details: male, Sprague-Dawley, rat, plasma
Source text: as §1, §2

human mu opioid receptor = target: T1, human mu opioid receptor (Homo sapiens, UniProt P35372); experiment: cell-based
T1 construct: expressed in transfected cells; host or cells: CHO cells
T1 sequence (P35372 whole entry): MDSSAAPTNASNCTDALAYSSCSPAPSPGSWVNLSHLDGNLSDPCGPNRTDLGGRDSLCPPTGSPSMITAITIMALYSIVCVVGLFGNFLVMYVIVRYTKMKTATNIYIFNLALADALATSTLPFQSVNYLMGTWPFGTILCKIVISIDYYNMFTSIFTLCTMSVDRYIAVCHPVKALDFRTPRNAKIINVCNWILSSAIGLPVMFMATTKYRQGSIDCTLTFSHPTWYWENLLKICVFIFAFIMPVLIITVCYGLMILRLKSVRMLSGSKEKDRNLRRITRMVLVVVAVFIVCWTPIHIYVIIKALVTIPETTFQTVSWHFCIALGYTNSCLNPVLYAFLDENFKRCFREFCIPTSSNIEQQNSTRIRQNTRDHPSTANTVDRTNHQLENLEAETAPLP

Sprague-Dawley rats [3] = experiment: Abuse liability: progressive ratio test in rats trained to self-administer cocaine; format: in vivo; details: for reinforcing behavior, progressive ratio: all doses tested
Protocol: In the three-day rat substitution tests, rats trained to self-administer cocaine were exposed to saline or test article via intravenous bolus infusions for one hour sessions on three consecutive days.
The rate of self-administration is determined not only by reinforcing effects of drug but also by the direct effects of the drug on motor behavior. To measure reinforcing effects in a quantitative way, a procedure was utilized in which responding was determined by reinforcing effects uncontaminated with other drug effects. […] See, e.g., Griffiths R R, Brady J V, Bradford L D. Advances in Behavioral Pharmacology (Vol 2).
Under this schedule, the animal responds on the lever for delivery of test article. For each subsequent drug delivery the total number of responses emitted on the lever required for drug delivery was incremented upward using a logarithmic (base e) scale using the following equation:
Response requirement=5*e^(response increment*0.2)−5
The progressive “break point” is defined as the highest number of responses emitted by the animal to earn a single reinforcer delivery of drug or vehicle. This break point is used as a behavioral marker of how much work will be expended by an experimental subject to earn a single reinforcer delivery. The amount of work expended to earn a single reinforcer is used to compare the efficacy of drug deliveries with respect to the hedonic valence induced by the drug injection with the assumption that the subjective hedonic valence of a reinforcer determines its abuse liability.

mice = experiment: Oral dose giving maximal analgesia; format: in vivo
Sprague-Dawley male rats = experiment: Motor coordination (sedation) on the rotarod treadmill; format: in vivo; details: for sedation compared to oxycodone: equianalgesic dose
Protocol: The following studies were conducted to evaluate the effect of orally administered PEG-6-O-hydroxycodone on motor coordination (i.e., sedation) in rats using the rat rotarod Treadmill. Motor coordination was evaluated at 0.5 h and 1 h post-dose.
The rats weighed between 240 to 280 grams on the day of study. Rats were not fasted prior to dosing.
Animals were trained to run on the treadmill for 2 consecutive days prior to the day of study. Animals were trained at a constant speed of 10 RPM and were given as many trials as necessary until they were able to stay on the rotarod for 300 seconds. Rats that were able to stay on the rod for 300 seconds were considered trained. On the day of study, animals were placed on the rotarod treadmill at 0, 30, and 60 minutes post dose. The treadmill was set at a constant speed of 4 RPM for 15 seconds, at this point the timer was started (T=0). After this 15 second period, the rotarod was set to accelerate from 4-40 RPM over a five minute period (using the built in program of the rotarod). The time (in seconds) that each animal stopped running and tripped the plate was recorded as the animal's run time. Animals that ran for 300 seconds were taken of the treadmill and 300 seconds was recorded as the run time.
The objective of this study was to evaluate the effect of 10, 30, 100, and 300 mg/kg of PEG-6-O-hydroxycodone on motor coordination in rats using the rotarod treadmill. All doses were administered orally and evaluated at 0.5 h and 1 h post-dose.

male (CD1) mice = experiment: Respiratory depression, whole body plethysmography with CO2 challenge; details: equianalgesic doses (100 mg/kg vs oxycodone 30 mg/kg, gavage)
Protocol: The animals were housed in SPF conditions. The animal housing facilities were maintained at 72°+/−2° F. with a light cycle of 12:12 hours (light:dark). Autoclaved rodent chow and water are provided ad libitum.
Approximate measurements of minute ventilation were carried out using Buxco unrestrained whole body plethysmographs (WBP). Digital computer aided analysis of the analog signal was used to report measurements of tidal volume, frequency of breathing, minute ventilation, inspiratory and expiratory times and flows as well as other derived measurements.
To more clearly delineate the effect of these test articles on respiratory depression, a hypercapnic ventilatory stimulus (CO2) was added to the animals' breathing air supply to stimulate ventilation.
Mice received the drug by gavage and then were placed in the WBP. […] The mouse remained in that atmosphere for 10 minutes, after which time the chamber was flushed with zero grade air for another 20 min to allow ventilation to return to baseline. The mouse was challenged again with 8% CO2 for 10 minutes. […] The last 2 minutes of each of the two conditions (Air or 8% CO2) was recorded and analyzed for the following respiratory parameters: minute ventilation, respiratory frequency, tidal volume, and time of inspiration/expiration for animals in each dose group.

Sprague-Dawley rats [4] = experiment: Abuse liability: three-day substitution test in rats trained to self-administer cocaine; details: i.v. self-administration
[5] = hydroxycodone series, 5.0 mg/kg oral, Mean ± SD
[6] = listed as mPEG6-O-hydroxycodone
[7] = listed as PEG-6-O-hydroxycodone

Compound: COCCOCCOCCOCCOCCOCCOC1CCC2(O)C3Cc4ccc(OC)c5c4C2(CCN3C)C1O5 (stereo not drawn) [α-6-mPEG6-O-hydroxycodone, α-6-mPEG6-O-oxycodone]
- injection lever responses (% ILR) (squirrel monkeys; 0.03 mg/kg/injection): only food lever responses
- injection lever responses (% ILR) (squirrel monkeys; 1 mg/kg/injection): 39%
- subjects showing addictive behavior (squirrel monkeys; 1 mg/kg/injection): 25%
- injection lever responses (% ILR) (squirrel monkeys; 1 mg/kg/injection, listed as α-mPEG-6-O-hydroxycodone): 38±24%
- subjects showing addictive behavior (squirrel monkeys; 3 mg/kg/injection): 50%
- AUC [1]: 210 ng·h/mL
- AUC(0-inf) [1]: 218 ng·h/mL
- MRT last [1]: 0.795 h
- clearance [1]: 77.9 ± 14.4 mL/min/kg
- Cmax ([1]; read-out: Cmax): 445 ± 83.6 ng/mL
- half-life ([1]; read-out: T1/2(z)): 1.04 ± 0.0862 h
- Vd ([1]; read-out: Vss): 4.68 ± 0.938 L/kg
- bioavailability ([2]; po, 5 mg/kg): 55.3%
- AUC [2, 5]: 585 ng·h/mL
- MRT last [2, 5]: 2.57 h
- AUC(0-inf) ([2]; hydroxycodone series, 5.0 mg/kg oral, Mean ± SD, * n = 2): 603 ng·h/mL
- half-life ([2]; hydroxycodone series, 5.0 mg/kg oral, Mean ± SD, * n = 2, read-out: T1/2(z)): 1.42 ± 0.131 h
- Cmax ([2]; hydroxycodone series, 5.0 mg/kg oral, Mean ± SD, read-out: Cmax): 171 ± 76.6 ng/mL
- Tmax ([2]; hydroxycodone series, 5.0 mg/kg oral, median value, read-out: Tmax (converted)): 2 h
- Emax (human mu opioid receptor; maximal response at the highest tested concentration, read-out: % max effect, mu opioid receptor): 102%
- EC50 (human mu opioid receptor; read-out: EC50, mu opioid receptor): 12.5 µM
- progressive ratio break point (Sprague-Dawley rats [3]; 1.0 mg/kg/injection): 21
- reinforcing behavior, progressive ratio (Sprague-Dawley rats [3]): no reinforcing behavior was observed; also recorded: no reinforcing behaviour was exhibited
- reinforcing behavior, progressive ratio (Sprague-Dawley rats [3]; [6]): showed no reinforcing properties and behaved like saline
- oral dose at which maximal analgesia was obtained (mice): 100 mg/kg
- motor impairment, overall (Sprague-Dawley male rats; 300 mg/kg oral, 0.5 h and 1 h post-dose): slight motor impairment
- rotarod performance, overall (Sprague-Dawley male rats; 10, 30, 100 mg/kg oral): failed to impair rotarod performance
- sedation compared to oxycodone (Sprague-Dawley male rats; [7]): produces less sedation than the parent opioid
- sedation compared to oxycodone (Sprague-Dawley male rats; [6]): less sedation
- time spent on the rotarod compared to saline control (Sprague-Dawley male rats; initial study, 30 mg/kg oral, 0.5 h post-dose): showed a reduction in time spent on the rotarod
- rotarod performance compared to saline control (Sprague-Dawley male rats; initial study, 10, 100 or 300 mg/kg oral, 0.5 h and 1 h post-dose): did not exhibit impaired rotarod performance
- time spent on rotarod compared to saline control (Sprague-Dawley male rats; repeated study, 300 mg/kg oral, 0.5 h and 1 h post-dose): showed a reduction in time spent on rotarod
- rotarod performance compared to saline control (Sprague-Dawley male rats; repeated study, 10, 30 or 100 mg/kg oral, 0.5 h and 1 h post-dose): did not demonstrate impaired rotarod performance
- respiratory depression compared to oxycodone (male (CD1) mice; [7]): produces less respiratory depression than oxycodone
- respiratory depression compared to oxycodone (male (CD1) mice; [6]): less respiratory depression
- reinforcing behavior, three-day substitution (Sprague-Dawley rats [4]): no reinforcing behavior was observed; also recorded: lack of reinforcing behavior
- reinforcing behavior, three-day substitution (Sprague-Dawley rats [4]; [6]): no behavioral evidence of positive reinforcement

From patent publication US20130023553A1, “PEGYLATED OPIOIDS WITH LOW POTENTIAL FOR ABUSE AND SIDE EFFECTS” (Nektar Therapeutics, priority 2010, published 2013)
